According to PMC7719162, “Positioning of an unprecedented spiro[5.5]undeca ring system into kinase inhibitor space” (Scientific Reports, 2020):
Like-named read-outs stand apart in the source and are kept apart here.

How the values were obtained:
[1] = target: T1, PI3Kb (p110b/p85a) (Homo sapiens, UniProt P42338); experiment: Kinase panel assay (lipid kinase); format: biochemical; settings: 30 μM compound, ATP 10 μM, duplicates Data 1/Data 2
T1 construct: purchased Reaction Biology Corp

[2] = target: T2, ARK5/NUAK1 (Homo sapiens, UniProt O60285); experiment: Kinase panel assay (radiolabelled); format: biochemical; settings: ATP 10 μM
T2 construct: purchased Reaction Biology Corp
T2 sequence (O60285 1-661): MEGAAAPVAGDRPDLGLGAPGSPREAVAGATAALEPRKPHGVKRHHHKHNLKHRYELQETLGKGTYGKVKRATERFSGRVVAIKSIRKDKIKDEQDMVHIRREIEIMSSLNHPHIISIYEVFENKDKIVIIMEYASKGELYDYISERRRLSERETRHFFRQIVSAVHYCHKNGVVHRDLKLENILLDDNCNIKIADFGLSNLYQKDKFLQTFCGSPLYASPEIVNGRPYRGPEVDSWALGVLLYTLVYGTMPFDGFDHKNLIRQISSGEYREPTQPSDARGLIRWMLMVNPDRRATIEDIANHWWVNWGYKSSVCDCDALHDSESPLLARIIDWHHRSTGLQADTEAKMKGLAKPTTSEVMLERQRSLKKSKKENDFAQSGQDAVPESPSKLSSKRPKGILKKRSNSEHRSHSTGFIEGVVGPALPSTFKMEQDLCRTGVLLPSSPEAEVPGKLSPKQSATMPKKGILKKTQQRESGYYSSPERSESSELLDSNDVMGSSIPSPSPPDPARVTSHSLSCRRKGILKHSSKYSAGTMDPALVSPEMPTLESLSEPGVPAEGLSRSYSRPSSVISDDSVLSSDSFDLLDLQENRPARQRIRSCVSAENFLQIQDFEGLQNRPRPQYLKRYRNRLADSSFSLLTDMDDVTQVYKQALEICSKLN

[3] = target: T3, AMPK(A1/B1/G3) (Homo sapiens, UniProt Q13131); experiment: Kinase panel assay (radiolabelled); format: biochemical; settings: 30 μM compound, ATP 10 μM; duplicates Data 1/Data 2
T3 construct: purchased Reaction Biology Corp

[4] = target: T4, AMPK(A1/B1/G3) (Homo sapiens, UniProt Q13131+Q9UGI9+Q9Y478); experiment: Kinase panel assay (radiolabelled); format: biochemical; settings: 30 μM compound, ATP 10 μM; duplicates Data 1/Data 2; read-out: % Enzyme Activity (relative to DMSO controls)
T4 construct: purchased Reaction Biology Corp

[5] = target: T5, PDK2/PDHK2 (Homo sapiens, UniProt Q15119); experiment: Kinase panel assay (radiolabelled); format: biochemical; settings: 30 μM compound, ATP 10 μM, duplicates Data 1/Data 2
T5 construct: purchased Reaction Biology Corp
Method: (§1) Every inhibitory activity of tested compounds was measured by radiolabelled method of Reaction Biology Corp). The radiolabelled ATP ([γ-^33P] ATP) replaced a substrate with ^33P-phosphorylated substrate so that the activity of a kinase was measured from the radiolabelled phosphorylated substrate. Kinase panel assay was tested at 30 μM testing compounds with an ATP concentration of 10 μM and a substrate concentration of 10 μM. % Residual activity against GSK3β was measured at 10 uM compounds 1 and 2. […] Curve fits of control compounds were performed where the enzyme activities at the highest concentration of compounds were less than 65%. The concentration of DMSO was controlled and raw data, % kinase activity was calculated relative to DMSO controls.

[6] = target: T6, EIF2AK1 (Homo sapiens, UniProt Q9BQI3); experiment: Kinase panel assay (radiolabelled); format: biochemical; settings: 30 μM compound, ATP 10 μM, duplicates Data 1/Data 2
T6 construct: purchased Reaction Biology Corp
Method: as §1

[7] = target: T7, PDK3/PDHK3 (Homo sapiens, UniProt Q15120); experiment: Kinase panel assay (radiolabelled); format: biochemical; settings: 30 μM compound, ATP 10 μM, duplicates Data 1/Data 2
T7 construct: purchased Reaction Biology Corp
Method: as §1

[8] = target: T8, PDK1/PDHK1 (Homo sapiens, UniProt Q15118); experiment: Kinase panel assay (radiolabelled); format: biochemical; settings: 30 μM compound, ATP 10 μM, duplicates Data 1/Data 2
T8 construct: purchased Reaction Biology Corp
Method: as §1

[9] = target: T9, TRPM7/CHAK1 (Homo sapiens, UniProt Q96QT4); experiment: Kinase panel assay (radiolabelled); format: biochemical; settings: 30 μM compound, ATP 10 μM, duplicates Data 1/Data 2
T9 construct: purchased Reaction Biology Corp
Method: as §1

[10] = target: T10, PDK4/PDHK4 (Homo sapiens, UniProt Q16654); experiment: Kinase panel assay (radiolabelled); format: biochemical; settings: 30 μM compound, ATP 10 μM, duplicates Data 1/Data 2
T10 construct: purchased Reaction Biology Corp
Method: as §1

[11] = target: T11, TRKC (G623E) (Homo sapiens, UniProt Q16288, G623E); experiment: Kinase panel assay (radiolabelled); format: biochemical; settings: 30 μM compound, ATP 10 μM, duplicates Data 1/Data 2
T11 construct: purchased Reaction Biology Corp

[12] = target: T12, PI3K (p110a(E542K)/p85a) (Homo sapiens, UniProt P42336, E542K); experiment: Kinase panel assay (lipid kinase); format: biochemical; settings: 30 μM compound, ATP 10 μM, duplicates Data 1/Data 2
T12 construct: purchased Reaction Biology Corp

[13] = target: T13, PI4K2A (Homo sapiens, UniProt Q9BTU6); experiment: Kinase panel assay (lipid kinase); format: biochemical; settings: 30 μM compound, ATP 10 μM, duplicates Data 1/Data 2
T13 construct: purchased Reaction Biology Corp
Method: as §1

[14] = target: T14, PI4Ka (Homo sapiens, UniProt P42356); experiment: Kinase panel assay (lipid kinase); format: biochemical; settings: 30 μM compound, ATP 10 μM, duplicates Data 1/Data 2
T14 construct: purchased Reaction Biology Corp

[15] = test system: IL-1β; experiment: Secreted IL-1β ELISA in LPS-induced BV-2 cells; format: cell-based, murine
Method: To evaluate the secreted level of Prostaglandin E2 (PGE2), Tumor necrosis factor (TNF-α), Interleukin (IL-6), Interleukin (IL-1β), BV2 cells were seeded in a 6 well plate at the density of 1.5 × 10^6 cells/well in DMEM and incubated for 24 h. Seeded cells sere pretreated and, activated with LPS for next 24 h. conditioned medium from treated cells were collected and stored at -80 degree for longer period of time. The amount of TNF-α, IL-1β, PGE2,and IL-6 were evaluated using the competitive enzyme immunoassay kit. PGE2 kit were obtained from (Cayman Chemical, Ann Arbor, MI, USA) and TNF-α, IL-1β, and IL-6 were measured using ELISA development kits (R&D Systems, Minneapolis, MN, USA). All the protocol was exactly followed as written in the manual.

[16] = target: T15, EEF2K (Homo sapiens, UniProt O00418); experiment: Kinase panel assay (radiolabelled); format: biochemical; settings: 30 μM compound, ATP 10 μM, duplicates Data 1/Data 2
T15 construct: purchased Reaction Biology Corp

[17] = target: T16, TRKC (Homo sapiens, UniProt Q16288); settings: cited from earlier work
T16 construct: purchased Reaction Biology Corp

[18] = target: T17, JNK2 (Homo sapiens, UniProt P45984); settings: cited from earlier work
T17 construct: purchased Reaction Biology Corp

[19] = target: T18, STK25/YSK1 (Homo sapiens, UniProt O00506); settings: cited from earlier work
T18 construct: purchased Reaction Biology Corp

[20] = read-out: % Enzyme Activity (relative to DMSO controls)

T14 sequence (P42356 whole entry): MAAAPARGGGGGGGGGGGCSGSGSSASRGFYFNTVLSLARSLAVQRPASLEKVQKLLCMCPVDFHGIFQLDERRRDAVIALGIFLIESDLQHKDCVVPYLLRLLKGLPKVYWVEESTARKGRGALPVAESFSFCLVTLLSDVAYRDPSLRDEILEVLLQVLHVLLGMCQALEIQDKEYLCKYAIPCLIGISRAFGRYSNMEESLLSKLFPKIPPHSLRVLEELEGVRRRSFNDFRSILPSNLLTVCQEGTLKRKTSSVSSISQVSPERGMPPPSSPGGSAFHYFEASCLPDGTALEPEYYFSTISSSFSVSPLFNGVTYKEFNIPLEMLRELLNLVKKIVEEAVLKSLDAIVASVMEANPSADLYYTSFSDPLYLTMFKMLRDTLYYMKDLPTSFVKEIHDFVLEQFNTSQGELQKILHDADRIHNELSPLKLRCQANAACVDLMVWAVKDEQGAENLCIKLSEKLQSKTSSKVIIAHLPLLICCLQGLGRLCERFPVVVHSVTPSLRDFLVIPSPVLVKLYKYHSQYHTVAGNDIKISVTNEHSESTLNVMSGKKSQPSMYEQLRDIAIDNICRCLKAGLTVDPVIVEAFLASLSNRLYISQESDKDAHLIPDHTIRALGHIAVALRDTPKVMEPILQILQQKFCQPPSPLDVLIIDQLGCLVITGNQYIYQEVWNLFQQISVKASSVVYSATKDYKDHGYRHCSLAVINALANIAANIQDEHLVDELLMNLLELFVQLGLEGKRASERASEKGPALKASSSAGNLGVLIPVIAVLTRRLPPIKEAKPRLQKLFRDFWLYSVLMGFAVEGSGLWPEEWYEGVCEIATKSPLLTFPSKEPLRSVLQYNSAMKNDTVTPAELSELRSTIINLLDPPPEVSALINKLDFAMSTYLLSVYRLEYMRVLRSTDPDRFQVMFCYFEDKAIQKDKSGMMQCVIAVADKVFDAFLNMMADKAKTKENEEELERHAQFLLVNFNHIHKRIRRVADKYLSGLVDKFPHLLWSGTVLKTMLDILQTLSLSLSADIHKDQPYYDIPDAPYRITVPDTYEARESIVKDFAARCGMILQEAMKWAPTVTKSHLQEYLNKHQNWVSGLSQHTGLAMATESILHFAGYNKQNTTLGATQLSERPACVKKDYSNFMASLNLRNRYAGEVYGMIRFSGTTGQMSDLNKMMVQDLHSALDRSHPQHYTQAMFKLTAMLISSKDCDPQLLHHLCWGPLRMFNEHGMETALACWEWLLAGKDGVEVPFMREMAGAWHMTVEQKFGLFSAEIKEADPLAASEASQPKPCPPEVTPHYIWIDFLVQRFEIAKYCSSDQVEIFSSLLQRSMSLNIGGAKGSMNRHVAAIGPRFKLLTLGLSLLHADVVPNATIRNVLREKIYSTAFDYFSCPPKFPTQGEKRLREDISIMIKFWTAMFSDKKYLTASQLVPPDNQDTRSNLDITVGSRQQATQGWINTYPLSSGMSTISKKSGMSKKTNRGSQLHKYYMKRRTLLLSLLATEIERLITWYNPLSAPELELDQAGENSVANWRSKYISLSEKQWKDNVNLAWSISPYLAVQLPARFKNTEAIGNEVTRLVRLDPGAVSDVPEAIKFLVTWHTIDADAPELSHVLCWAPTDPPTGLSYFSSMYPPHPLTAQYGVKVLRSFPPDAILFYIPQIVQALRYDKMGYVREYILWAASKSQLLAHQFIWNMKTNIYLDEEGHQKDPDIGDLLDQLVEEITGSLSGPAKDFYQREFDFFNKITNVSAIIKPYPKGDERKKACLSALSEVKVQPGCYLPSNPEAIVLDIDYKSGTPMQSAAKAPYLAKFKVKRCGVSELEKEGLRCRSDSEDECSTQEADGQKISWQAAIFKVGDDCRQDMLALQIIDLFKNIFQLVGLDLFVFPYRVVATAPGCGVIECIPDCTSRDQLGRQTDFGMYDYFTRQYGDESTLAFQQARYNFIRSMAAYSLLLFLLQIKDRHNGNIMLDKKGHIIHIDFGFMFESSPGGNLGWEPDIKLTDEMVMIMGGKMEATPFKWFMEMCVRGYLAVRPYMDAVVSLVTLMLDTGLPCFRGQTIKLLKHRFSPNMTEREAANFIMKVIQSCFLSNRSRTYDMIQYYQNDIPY
T11 sequence (Q16288 32-839 G623E): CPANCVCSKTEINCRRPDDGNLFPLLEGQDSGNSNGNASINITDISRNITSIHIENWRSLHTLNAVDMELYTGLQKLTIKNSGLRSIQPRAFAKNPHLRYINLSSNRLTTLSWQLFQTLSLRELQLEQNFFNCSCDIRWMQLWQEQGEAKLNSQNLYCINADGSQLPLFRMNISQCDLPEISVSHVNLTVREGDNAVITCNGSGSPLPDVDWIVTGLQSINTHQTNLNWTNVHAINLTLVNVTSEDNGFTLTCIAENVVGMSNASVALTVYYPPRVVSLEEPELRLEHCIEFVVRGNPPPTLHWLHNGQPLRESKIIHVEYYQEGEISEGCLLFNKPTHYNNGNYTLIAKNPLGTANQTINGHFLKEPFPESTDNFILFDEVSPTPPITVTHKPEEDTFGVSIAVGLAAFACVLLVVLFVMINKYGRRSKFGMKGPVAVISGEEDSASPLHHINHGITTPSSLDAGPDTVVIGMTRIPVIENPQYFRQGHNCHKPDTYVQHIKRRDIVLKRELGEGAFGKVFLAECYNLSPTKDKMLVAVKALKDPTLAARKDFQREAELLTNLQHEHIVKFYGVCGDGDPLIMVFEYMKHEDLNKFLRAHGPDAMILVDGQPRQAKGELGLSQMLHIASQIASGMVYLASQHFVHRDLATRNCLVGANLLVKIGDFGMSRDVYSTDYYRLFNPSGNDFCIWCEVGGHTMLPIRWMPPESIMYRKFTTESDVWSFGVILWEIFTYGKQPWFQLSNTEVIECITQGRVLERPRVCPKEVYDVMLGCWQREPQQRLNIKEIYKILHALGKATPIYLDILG
T15 sequence (O00418 whole entry): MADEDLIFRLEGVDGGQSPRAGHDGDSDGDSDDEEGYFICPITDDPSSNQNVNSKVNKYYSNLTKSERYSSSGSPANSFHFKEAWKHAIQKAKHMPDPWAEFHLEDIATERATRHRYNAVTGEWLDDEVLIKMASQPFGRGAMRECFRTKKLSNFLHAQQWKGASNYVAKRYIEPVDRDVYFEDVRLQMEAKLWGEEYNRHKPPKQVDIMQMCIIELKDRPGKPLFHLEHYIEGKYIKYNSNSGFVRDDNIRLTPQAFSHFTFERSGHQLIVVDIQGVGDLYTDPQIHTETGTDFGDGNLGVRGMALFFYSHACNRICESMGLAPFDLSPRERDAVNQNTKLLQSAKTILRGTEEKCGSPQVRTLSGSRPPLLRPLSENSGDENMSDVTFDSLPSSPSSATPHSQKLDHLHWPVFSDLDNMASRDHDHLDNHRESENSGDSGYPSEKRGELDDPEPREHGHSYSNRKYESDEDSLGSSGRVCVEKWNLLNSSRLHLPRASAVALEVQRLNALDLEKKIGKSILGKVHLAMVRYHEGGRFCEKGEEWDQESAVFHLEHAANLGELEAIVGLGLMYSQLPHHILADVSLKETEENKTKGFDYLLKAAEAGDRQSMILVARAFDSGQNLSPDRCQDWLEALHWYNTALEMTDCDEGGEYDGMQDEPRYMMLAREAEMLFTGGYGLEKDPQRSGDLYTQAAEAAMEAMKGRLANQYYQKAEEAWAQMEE
T6 sequence (Q9BQI3 whole entry): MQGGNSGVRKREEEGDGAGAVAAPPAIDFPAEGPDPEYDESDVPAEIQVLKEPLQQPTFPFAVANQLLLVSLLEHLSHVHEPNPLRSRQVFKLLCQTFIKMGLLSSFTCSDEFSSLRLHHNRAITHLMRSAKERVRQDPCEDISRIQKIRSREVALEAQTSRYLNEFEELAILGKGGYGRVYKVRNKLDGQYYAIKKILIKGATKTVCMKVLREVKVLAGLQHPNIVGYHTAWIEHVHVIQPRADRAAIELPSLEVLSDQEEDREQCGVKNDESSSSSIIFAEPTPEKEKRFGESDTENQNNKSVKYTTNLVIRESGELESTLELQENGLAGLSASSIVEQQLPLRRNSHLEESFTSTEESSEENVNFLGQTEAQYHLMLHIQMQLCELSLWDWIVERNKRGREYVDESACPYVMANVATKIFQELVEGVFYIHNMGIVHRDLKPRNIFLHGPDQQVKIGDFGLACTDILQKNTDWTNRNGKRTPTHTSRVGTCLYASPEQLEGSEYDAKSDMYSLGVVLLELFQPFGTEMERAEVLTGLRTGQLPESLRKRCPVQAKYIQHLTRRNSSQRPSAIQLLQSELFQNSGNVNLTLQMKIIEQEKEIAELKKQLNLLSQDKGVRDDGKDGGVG
T10 sequence (Q16654 whole entry): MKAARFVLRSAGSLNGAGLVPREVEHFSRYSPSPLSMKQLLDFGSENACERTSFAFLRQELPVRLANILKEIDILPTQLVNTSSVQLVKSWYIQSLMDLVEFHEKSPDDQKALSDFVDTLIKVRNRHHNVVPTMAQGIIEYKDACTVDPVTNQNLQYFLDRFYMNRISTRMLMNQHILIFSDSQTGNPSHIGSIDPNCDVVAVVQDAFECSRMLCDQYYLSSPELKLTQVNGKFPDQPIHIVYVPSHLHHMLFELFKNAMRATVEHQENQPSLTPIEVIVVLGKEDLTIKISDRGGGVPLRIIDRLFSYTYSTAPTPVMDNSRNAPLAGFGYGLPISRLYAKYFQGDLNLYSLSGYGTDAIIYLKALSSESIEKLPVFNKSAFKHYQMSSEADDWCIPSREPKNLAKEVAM
T7 sequence (Q15120 whole entry): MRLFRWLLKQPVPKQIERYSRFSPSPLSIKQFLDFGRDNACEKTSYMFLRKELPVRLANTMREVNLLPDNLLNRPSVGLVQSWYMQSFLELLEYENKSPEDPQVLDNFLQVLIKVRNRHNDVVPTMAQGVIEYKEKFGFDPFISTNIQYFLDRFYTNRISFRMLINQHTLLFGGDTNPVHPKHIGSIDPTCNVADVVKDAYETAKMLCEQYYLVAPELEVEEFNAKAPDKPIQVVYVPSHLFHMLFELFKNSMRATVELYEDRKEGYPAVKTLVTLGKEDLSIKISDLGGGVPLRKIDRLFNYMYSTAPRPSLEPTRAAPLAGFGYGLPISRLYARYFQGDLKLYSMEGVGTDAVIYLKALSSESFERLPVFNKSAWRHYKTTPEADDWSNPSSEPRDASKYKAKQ

## O=C1C=CC2(C=C1)OCC(Cc1cn(-c3cccc(Cl)c3)nn1)C(=O)N2c1ccccc1 (stereo not drawn) [2d, 3-((1-(3-Chlorophenyl)-1H-1,2,3-triazol-4-yl)methyl)-5-phenyl-1-oxa-5-azaspiro[5.5]undeca-7,10-diene-4,9-dione]
[1]
  % Enzyme Activity (relative to DMSO controls): 86.58%
[1]; [20]
  remaining activity at 30 µM: 86.3%
[2]; 30 μM compound, duplicates Data 1/Data 2
  % Enzyme Activity (relative to DMSO controls): 84.16%
[2]; 30 μM compound, duplicates Data 1/Data 2, read-out: % Enzyme Activity (relative to DMSO controls)
  remaining activity at 30 µM: 93.6%
[2]; 30 μM, average ± SD, read-out: % Residual Activity at 30 μM
  remaining activity at 30 µM: 88.9 ± 6.7%
[3]
  % Enzyme Activity (relative to DMSO controls): 100.85%
[4]
  remaining activity at 30 µM: 101%
[5]
  % Enzyme Activity (relative to DMSO controls): 63.30%
[5]; [20]
  remaining activity at 30 µM: 64.3%
[6]
  % Enzyme Activity (relative to DMSO controls): 87.95%
[6]; [20]
  remaining activity at 30 µM: 91.7%
[7]
  % Enzyme Activity (relative to DMSO controls): 82.28%
[7]; [20]
  remaining activity at 30 µM: 85.9%
[8]
  % Enzyme Activity (relative to DMSO controls): 85.01%
[8]; [20]
  remaining activity at 30 µM: 85.6%
[9]
  % Enzyme Activity (relative to DMSO controls): 63.76%
[9]; [20]
  remaining activity at 30 µM: 67.5%
[10]
  % Enzyme Activity (relative to DMSO controls): 105.05%
[10]; [20]
  remaining activity at 30 µM: 111%
[11]
  % Enzyme Activity (relative to DMSO controls): 114.78%
[11]; [20]
  remaining activity at 30 µM: 118%
[12]
  % Enzyme Activity (relative to DMSO controls): 100.20%
[12]; [20]
  remaining activity at 30 µM: 103%
[13]
  % Enzyme Activity (relative to DMSO controls): 74.47%
[13]; [20]
  remaining activity at 30 µM: 75.9%
[14]
  % Enzyme Activity (relative to DMSO controls): 101.50%
[14]; [20]
  remaining activity at 30 µM: 101%
[15]
  IL-1β level: concentration-dependent manner
[16]
  % Enzyme Activity (relative to DMSO controls): 101.96%
[16]; [20]
  remaining activity at 30 µM: 103%

## O=C1C=CC2(C=C1)OCC(Cc1cc(C(F)(F)F)cc(C(F)(F)F)c1)C(=O)N2c1ccccc1 (racemic) [1c]
[17]
  % Residual Activity at 30 μM: 97.9 ± 0.2%
[18]
  % Residual Activity at 30 μM: 58.3 ± 0.7%
[19]
  % Residual Activity at 30 μM: 66.9 ± 0.1%
